Measured values published in patent EP0450065A1, “ANTIVIRAL AGENT” (priority 1988, dated 1990).
Like-named read-outs stand apart in the source and are kept apart here.

How the values were obtained:
Assay type in all cases: cell-based
[1] = tested on: herpes simplex virus type 2 (169 strain); experiment: 50% Tissue culture infective dose (TCID50), Read-Munch method, negative logarithm of virus dilution; set-up: key to Cytopathic effect [CPE] (5days) TCID50 / Cytopathic effect [CPE] (3days) TCID50 / Cytopathic effect [CPE] (6days) TCID50: negative log of maximum virus dilution infecting 50% of tissues; conditions: HSV-2 (169); for log reduction at 100 µg/mL: difference from control
Description: (§1) The amount of virus infecting 50% of tissues (TCID₅₀) was determined by the Read-Munch method and expressed in negative logarithm of the maximum radio of dilution of virus. The difference of the amount thus determined from the amount found in the control (omitting the treatment with a chemical) was reported as ΔTCID₅₀. A sample whose ΔCPE's found on the last day of observation and on each of the days spent for the observation exceeded 1.0 was evaluated as effective.
(§2) In vitro antiviral activity of Compound A against herpes simplex virus type 2 (169 strain) The test was carried out by following the procedure of Example 3.

[2] = tested on: herpes simplex virus type 1 (HF strain); experiment: as above
Description: In vitro antiviral activity of Compound A against herpes simplex virus type 1 (HF strain) Compound A was tested for antiviral effect by the following two methods.
as §1
In vitro antiviral effect of Compound A against herpes simplex virus type 1 (HF strain) The test was carried out by following the procedure of Example 3.

[3] = tested on: herpes simplex virus type 2 (169 strain); experiment: Control of CPE (cytopathic effect) manifestation in vero cells; set-up: key to Cytopathic effect [CPE] (3days) Average / Cytopathic effect [CPE] (5days) Average / Cytopathic effect [CPE] (6days) Average: CPE score 0-3: 3 = ≥75% cells, 2 = 50%, 1 = 25%, 0 = none; conditions: 100 μg/ml, HSV-2 (169)
Description: (§3) Vero cells cultured and grown in a monolayer on microplates to test for cytopathic effect due to viral infection, with solutions of Compound A diluted to varying ratios and solutions of virus diluted to varying ratios added severally thereto in a volume of 0.1 ml, were cultured under the conditions of 5% CO₂ and 37°C and were examined for CPE manifestation under a microscope. The observation was continued for five to six days.
(§4) The degree of CPE brought about by viral infection was rated on the five-point scale, wherein 3 stands for CPE observed on not less than 75% of cultured cells, 2 for CPE observed on 50% of cultured cells, 1 for CPE observed on 25% of cultured cells, 0.5 for occurrence of one to two extremely minute DPE spots, and 0 for perfect absence of recognizable CPE. The CPE scores obtained at the four holes in each microplate were averaged and the difference of the average from the average obtained in the control (omitting the treatment with a chemical) was reported as ΔCPE.
as §2

[4] = tested on: herpes simplex virus type 1 (KOS strain); experiment: as above; conditions: 100 μg/ml, HSV-1 (KOS), Example 7
Description: as §3, §4
Antiviral activity of Compound A and Compound B against herpes simplex virus type 1 (KOS strain) The test was carried out by following the procedure of Example 3.

[5] = tested on: herpes simplex virus type 1 (KOS strain); experiment: One-step growth of virus, plaque assay with vero cells; conditions: 100 μg/ml, 24 hours; for inhibition at 100 µg/mL / log reduction at 100 µg/mL: Human alphaherpesvirus 1, Vero, 24 h; for inhibition at 100 µg/mL: read-out: Intracellular virus Control ratio %; for log reduction at 100 µg/mL: read-out: Intracellular virus Control ratio -logT/C
Description: Antiviral activity of Compound A and Compound B against one-step growth of herpes simplex virus type 1 (KOS strain) Cells grown in a monolayer, with a sample of a given compound diluted in a varying ratio added, were pretreated for 15 minutes. Then, the pretreated cells were infected with the herpes simplex virus type 1 (KOS strain) at an infecting ratio of 0.25 and left standing for 24 hours. At the end of the standing, the intracellular and extracellular amounts of virus were determined by the plaque assay with vero cells.

[6] = 100 μg/ml, HSV-1 (HF strain), Example 5
[7] = 100 μg/ml, HSV-1 (HF), Example 3
[8] = Example 4, difference from control
[9] = Example 6, difference from control

Nc1nc2c(ncn2COCCO)c(=O)[nH]1 [ACV, acyclovir, reference compound] was tested, and the “Cytopathic effect [CPE] (3days) TCID50” value ([1]; 100 μg/ml, Example 4) was 3.5, the “Cytopathic effect [CPE] (5days) TCID50” value ([1]; 100 μg/ml, Example 4) was 3.5 and the “Cytopathic effect [CPE] (3days) TCID50” value ([1]; 100 μg/ml, Example 6) was less than 3.5. For the same compound, the “Cytopathic effect [CPE] (6days) TCID50” value ([1]; 100 μg/ml, Example 6) was 3.5, the log reduction at 100 µg/mL ([1]; Human alphaherpesvirus 2, 72 h, read-out: Cytopathic effect [CPE] (3days) △TCID50, 100 μg/ml, Example 4) was 3 and the log reduction at 100 µg/mL ([1]; Human alphaherpesvirus 2, 72 h, read-out: Cytopathic effect [CPE] (3days) △TCID50, 100 μg/ml, Example 6) was greater than 3.2. The log reduction at 100 µg/mL ([1]; Human alphaherpesvirus 2, 120 h, read-out: Cytopathic effect [CPE] (5days) △TCID50, 100 μg/ml, Example 4) was 3, the log reduction at 100 µg/mL ([1]; Human alphaherpesvirus 2, 144 h, read-out: Cytopathic effect [CPE] (6days) △TCID50, 100 μg/ml, Example 6) was 3.2 and the “Cytopathic effect [CPE] (3days) TCID50” value [2, 6] was 5.5. For the same compound, the “Cytopathic effect [CPE] (6days) TCID50” value [2, 6] was 4.3, the “Cytopathic effect [CPE] (3days) TCID50” value [2, 7] was 3.5 and the “Cytopathic effect [CPE] (5days) TCID50” value [2, 7] was 3.5. It also gave a log reduction at 100 µg/mL ([2]; Human alphaherpesvirus 1, 72 h, read-out: Cytopathic effect [CPE] (3days) ΔTCID50) of 0.8, a log reduction at 100 µg/mL ([2]; Human alphaherpesvirus 1, 72 h, 100 μg/ml, HSV-1 (HF), Example 3, difference from control, read-out: Cytopathic effect [CPE] (3days) △TCID50) of 2.5 and a log reduction at 100 µg/mL ([2]; Human alphaherpesvirus 1, 120 h, 100 μg/ml, HSV-1 (HF), Example 3, difference from control, read-out: Cytopathic effect [CPE] (5days) △TCID50) of 2.5. The log reduction at 100 µg/mL ([2]; Human alphaherpesvirus 1, 144 h, read-out: Cytopathic effect [CPE] (6days) ΔTCID50) was 2, the “Cytopathic effect [CPE] (3days) Average” value ([3]; Example 4) was 0 and the “Cytopathic effect [CPE] (5days) Average” value ([3]; Example 4) was 0. For the same compound, the “Cytopathic effect [CPE] (3days) △CPE” value [3, 8] was 1.5, the “Cytopathic effect [CPE] (5days) △CPE” value [3, 8] was 3.05 and the “Cytopathic effect [CPE] (3days) Average” value ([3]; Example 6) was 0. The “Cytopathic effect [CPE] (6days) Average” value ([3]; Example 6) was 0, the “Cytopathic effect [CPE] (3days) △CPE” value [3, 9] was greater than 2.5 and the “Cytopathic effect [CPE] (6days) △CPE” value [3, 9] was 3.0. The “Cytopathic effect [CPE] (3days) Average” value [4] was 0, the “Cytopathic effect [CPE] (5days) Average” value [4] was 0 and the “Cytopathic effect [CPE] (3days) △CPE” value ([4]; difference from control) was 2.0. For the same compound, the “Cytopathic effect [CPE] (5days) △CPE” value ([4]; difference from control) was 3.0, the “Intracellular virus Average” value [5] was 8.50×10^2 /dish and the inhibition at 100 µg/mL ([5]; extracellular virus) was greater than 99.9%. The log reduction at 100 µg/mL ([5]; extracellular virus) was 5.78, the inhibition at 100 µg/mL [5] was greater than 99.9% and the log reduction at 100 µg/mL [5] was 5.68.
